In paper PMC7822874, “Chemoprotective antimalarials identified through quantitative high-throughput screening of Plasmodium blood and liver stage parasites” (Scientific Reports, 2021):
Values joined by “and” are separate entries in the source; they are usually repeats but may differ in a detail not shown here. Equal entries are not always repeated. Where two headings read alike, the source gives them in different places.

Key:
HepG2-A16-CD81EGFP cells = conditions: average of 2 wells; for HepG2 1uM growth rep1 / HepG2 1uM growth rep2: HepG2, 1 µM compound treatment (10 mM stocks); for HepG2 1uM growth rep1 / HepG2 3uM growth rep1: replicate 1, normalized; for HepG2 1uM growth rep2 / HepG2 3uM growth rep2: replicate 2, normalized; for HepG2 3uM growth rep1 / HepG2 3uM growth rep2: HepG2, 3 µM compound treatment (10 mM stocks)
[1] = test system: Plasmodium falciparum Dd2 asexual blood stage parasites; test: microbe, parasite or virus in culture; set-up: species or system Plasmodium falciparum Dd2 in human erythrocytes; single determination (one 11-point concentration-response curve); conditions: Plasmodium falciparum, DD2, Erythrocyte, 72 h; read-out: AC50
in vitro [2] = conditions: human, HepG2 cells; n = 1
[3] = test system: P. berghei-ANKA-GFP-LucCON liver stage parasites in HepG2-A16-CD81EGFP cells; test: P. berghei liver stage Pb-Luc assay, Method 1 (UCSD, 1536-well); assay type: cell-based, Plasmodium berghei; conditions: for activity at 1 µM / activity at 3 µM: 48 h, average of 2 wells on a 1536 well plate
[4] = test system: luciferase-expressing P. berghei liver stage parasites in HepG2 cells; test: Inhibition of liver-stage development assay (ILSDA), Method 2 (WRAIR, 96-well); assay type: cell-based, Plasmodium berghei; conditions: for AC50: Plasmodium berghei, HepG2, Method 2
in vitro [5] = conditions: human, HepG2-A16-CD81EGFP cells, uninfected
[6] = test system: T1, Plasmodium falciparum Dd2-attB-ScDHODH (transgenic line expressing yeast DHODH), asexual blood stages; test: organism not typed; set-up: replicate k of 3 (each line is one of three independent assays; the three lines of one compound and parasite line follow each other); conditions: 72 h, n = 1
T1 construct: Dd2-attB-ScDHODH, the transgenic line that expresses yeast DHODH
In short: (§1)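 We compare activity in parasites carrying fumarate-using yeast DHODH with that in the parental line; mETC or parasite DHODH inhibitors are bypassed by this enzyme. Data come from three independent assays, analysed by two-sided Student's t-tests.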

[7] = test system: T2, Plasmodium falciparum Dd2-attB (parental line), asexual blood stages; test: microbe, parasite or virus in culture; set-up: replicate k of 3 (each line is one of three independent assays; the three lines of one compound and parasite line follow each other); conditions: n = 1
T2 construct: Dd2-attB, the isogenic parental line
In short: as §1

[8] = Plasmodium berghei, P. berghei liver stage, 1 µM compound treatment (10 mM stocks), replicate 1, normalized, read-out: PbLuc 1uM growth rep1
[9] = Plasmodium berghei, P. berghei liver stage, 1 µM compound treatment (10 mM stocks), replicate 2, normalized, read-out: PbLuc 1uM growth rep2
[10] = Plasmodium berghei, P. berghei liver stage, 3 µM compound treatment (10 mM stocks), replicate 1, normalized, read-out: PbLuc 3uM growth rep1
[11] = Plasmodium berghei, P. berghei liver stage, 3 µM compound treatment (10 mM stocks), replicate 2, normalized, read-out: PbLuc 3uM growth rep2

Structure (SMILES) | HepG2 1uM growth rep1 (HepG2-A16-CD81EGFP cells) | HepG2 1uM growth rep2 (HepG2-A16-CD81EGFP cells) | HepG2 3uM growth rep1 (HepG2-A16-CD81EGFP cells) | HepG2 3uM growth rep2 (HepG2-A16-CD81EGFP cells) | AC50 [1] | CC50 at 48 h (in vitro [2]) | activity at 1 µM [3, 8] | activity at 1 µM [3, 9] | activity at 3 µM [3, 10] | activity at 3 µM [3, 11] | other results
O=C(CCl)Nc1cccc(-c2cnc3ccccc3n2)c1 [MLS000541295-01] | 90% | 88% | 89% | 88% | 6.68 µM | 13.7 µM | 128% | 119% | 151% | 185% | –
Oc1c(C(Nc2nccs2)c2ccc(C(F)(F)F)cc2)ccc2cccnc12 (stereo not drawn) [MLS000774842-01] | – | – | – | – | 5.31 µM | 15.3 µM | – | – | – | – | Max Resp (signal direction of the dose response) ([4]; Method 2, Decrease = decreasing P. berghei viability with dose, Increase = increasing signal, Inactive = no dose response): Decrease; AC50 ([4]; Hill fit, 50% of maximum activity response, read-out: AC50): 0.282 µM; AC50 ([4]; log10 of molar AC50 from Hill fit, read-out: Log AC50 (converted)): 0.282 µM
O=C(Nc1ncccc1O)c1ccc(NS(=O)(=O)c2ccc3[nH]c(=O)[nH]c3c2)cc1 [MLS001138628-01] | 110% | 100% | 89% | 93% | 0.422 µM | 21.7 µM | 61% | 57% | 21% | 25% | –
O=C1c2cc(F)ccc2-n2c1nc1ccccc1c2=O [MLS001216278-01] | – | – | – | – | 0.119 µM | 12.2 µM | – | – | – | – | viability at 66 h (in vitro [5]): 95.7%; Max Resp (signal direction of the dose response) ([3]; Method 1, Decrease = decreasing P. berghei viability with dose, Increase = increasing signal, Inactive = no dose response): Decrease; AC50 ([3]; Method 1, Hill fit, 50% of maximum activity response, read-out: AC50): 0.004 µM; Log AC50 (M) ([3]; Method 1, log10 of molar AC50 from Hill fit): -8.400 M; AC50 ([3]; Plasmodium berghei, Method 1, Hill fit, 50% of maximum activity response, read-out: AC50): 0.00355 µM; AC50 ([3]; Plasmodium berghei, Method 1, log10 of molar AC50 from Hill fit, read-out: Log AC50 (converted)): 0.00355 µM
O=C(N/N=C(/c1ccccc1)c1cccnc1)c1cccc(F)c1 [MLS001224623-01] | 68% | 59% | 30% | 34% | 4.22 µM | 12.2 µM | 10% | 9% | 6.61% | 8% | –
O=C(Nc1nc(-c2ccccn2)cs1)c1cccc(S(=O)(=O)N2CCOCC2)c1 [MLS002161290-01] | – | – | – | – | 5.96 µM | 9.68 µM | – | – | – | – | viability at 48 h, 1 µM (in vitro [5]): 98%; viability at 48 h, 3 µM (in vitro [5]): 60%; activity at 1 µM ([3]; Plasmodium berghei, 1 uM (compounds provided at 10 mM), column 11, read-out: Pb-Luc (P. berghei liver stage), % of control, lower concentration, first repeat): 17%; activity at 1 µM ([3]; Plasmodium berghei, 1 uM (compounds provided at 10 mM), column 12, read-out: Pb-Luc (P. berghei liver stage), % of control, lower concentration, second repeat): 16%; activity at 3 µM ([3]; Plasmodium berghei, 3 uM (compounds provided at 10 mM), column 8, read-out: Pb-Luc (P. berghei liver stage), % of control, higher concentration, first repeat): 7%; activity at 3 µM ([3]; Plasmodium berghei, 3 uM (compounds provided at 10 mM), column 9, read-out: Pb-Luc (P. berghei liver stage), % of control, higher concentration, second repeat): 7%
Oc1c(CN2CCCCC2)cc(COCc2ccccc2)c2cccnc12 [NCGC00052274-02] | – | – | – | – | 8.41 µM | 6.85 µM | – | – | – | – | Individual replicates / Log AC50 (M) [6]: -5.4986 Log AC50 (M); AC50 ([6]; read-out: Individual replicates / Log AC50 (converted)): 5.03 µM; Individual replicates / Log AC50 (M) ([7]; 72 h): -5.4486 Log AC50 (M) and -5.3486 Log AC50 (M); AC50 ([7]; Plasmodium falciparum, DD2, 72 h, read-out: Individual replicates / Log AC50 (converted)): 5.64 µM
